From patent US20250381289A1, “EGFR AND C-MET BISPECIFIC BINDING AGENTS, CONJUGATES THEREOF AND METHODS OF USING THE SAME” (GENMAB A/S, priority 2024, published 2025) come the findings set out here.

The subject of the experiment is EGFR and cMET co-expressed tumor cell lines (A431, A549, MDA-MB-468, MKN-45, NCI-H441, NCI-H1975). Kind of experiment: Binding activity of parent mAbs by flow cytometry. The settings on record: flow cytometry on tumor cell lines, FIGS. 1A-1F, Table 5; compared with zalutumumab (zalu) or cetuximab. How it is done:
EGFR and cMET co-expressed tumor cell lines including A431 (ATCC® CRL-1555), A549 (ATCC® CCL-185, Provided by Procell), MDA-MB-468 (ATCC® HTB-132, Provided by Procell), MKN-45 (CL-0292, Provided by Procell), NCI-H441 (ATCC® HTB-174, Provided by COBIOER), NCI-H1975 (ATCC® CRL-5908, Provided by Procell) were selected for evaluating antibody binding activity by flow cytometry.
A431 was cultured with DMEM medium (Gibco, Cat #C11995500BT) containing 10% FBS. MDA-MB-468, MKN-45, NCI-H441 and NCI-H1975 were cultured with RPMI 1640 medium (Gibco, Cat #11875093) containing 10% FBS. A549 was cultured with F12K medium (Gibco, Cat #21127030) containing 10% FBS. Each antibody was incubated with different cell lines (1×10^5 cells/well) for 30 min in 0.2 mL FACS buffer (1×PBS with 0.1% BSA) at 4° C. After wash, cells were incubated with 100 μL PE-conjugated anti human Fc (Abcam, Ab98596, 1:500 dilution) for 30 min at 4° C. After wash with PBS, cells were resuspended in FACS buffer and analyzed by flow cytometer (Beckman, CytoFLEX).

“Nectitumumab: parent EGFR mAb; sequences in Table 2 as Necitumumab [reference compound]”: the “binding activity / affinity of parent EGFR mAbs (summary)” value is “Stronger affinity than zalu,”.
Consider “Nimotuzumab: parent EGFR mAb; sequences in Table 2 [reference compound]”, for which the “binding activity / affinity of parent EGFR mAbs (summary)” value is given as “Lower affinity than zalutumumab, no significant”.
Then “Panitumumab: parent EGFR mAb; sequences in Table 2 [reference compound]”, with “Stronger affinity than cetuximab, binding remains”.
